Data as given in patent US8877744B2, “1,4-Oxazepines as BACE1 and/or BACE2 inhibitors” (Hoffmann-La Roche Inc., priority 2011, dated 2014).
pIC50: −log10 of the molar value. Structures can show the parent of a compound that is named as a salt.

Target: T1, BACE1 (Homo sapiens, UniProt P56817)
T1 construct: endogenous in cells; host or cells: HEK293 stably transfected with human APP695 wt
Experiment: Cellular Aβ-lowering assay b): HEK293 APP Abeta 40 AlphaLISA Assay
Type: cell-based
Conditions: assay b): HEK293 APP cells, Aβ 40 in supernatant by AlphaLISA, 18-20 hrs incubation
Protocol: b) HEK293 APP: Abeta 40 AlphaLISA Assay
The cells were seeded in 96 well Microtiter plates in cell culture medium (Iscove's, plus 10% (v/v) fetal bovine serum, penicillin/streptomycin) to about 80% confluency and the compounds were added at a 3× concentration in ⅓ volume of culture medium (final DMSO concentration was kept at 1% v/v). After 18-20 hrs incubation at 37° C. and 5% CO2 in a humidified incubator, the culture supernatants were harvested for the determination of Aβ 40 concentrations using Perkin-Elmer Human Amyloid beta 1-40 (high specificity) Kit (Cat#AL275C).
In a Perkin-Elmer White Optiplate-384 (Cat#6007290), […] culture supernatants were combined with 2 μl of a 10X AlphaLISA Anti-hAβ Acceptor beads+Biotinylated Antibody Anti-Aβ 1-40 Mix (50 μg/mL/5 nM). After 1 hour room temperature incubation, 16 μl of a 1.25× preparation of Streptavidin (SA) Donor beads (25 μg/mL) were added and incubated for 30 minutes in the Dark. Light Emission at 615 nm was then recorded using EnVision-Alpha Reader. Levels of Aβ 40 in the culture supernatants were calculated as percentage of maximum signal (cells treated with 1% DMSO without inhibitor). The IC50 values were calculated using the Excel XLfit software.

T1 sequence (P56817 46-501): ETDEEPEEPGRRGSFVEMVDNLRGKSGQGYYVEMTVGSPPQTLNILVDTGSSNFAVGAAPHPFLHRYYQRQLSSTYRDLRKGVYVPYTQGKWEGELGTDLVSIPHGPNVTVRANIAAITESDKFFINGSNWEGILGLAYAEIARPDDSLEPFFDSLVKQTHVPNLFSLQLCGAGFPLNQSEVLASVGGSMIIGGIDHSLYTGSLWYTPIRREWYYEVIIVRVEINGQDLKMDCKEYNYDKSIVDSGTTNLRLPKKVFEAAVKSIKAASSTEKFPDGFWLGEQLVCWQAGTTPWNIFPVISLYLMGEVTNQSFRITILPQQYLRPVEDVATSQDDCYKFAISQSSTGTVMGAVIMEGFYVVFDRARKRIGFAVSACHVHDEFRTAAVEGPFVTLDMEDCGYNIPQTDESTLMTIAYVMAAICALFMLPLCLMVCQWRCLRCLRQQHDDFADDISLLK

SMILES | pIC50
CC1(C)OCC(N)=N[C@](C)(c2cc(C#Cc3ccccn3)ccc2F)C1(F)F [Example 39, (R)-6,6-Difluoro-5-(2-fluoro-5-pyridin-2-ylethynyl-phenyl)-5,7,7-trimethyl-2,5,6,7-tetrahydro-[1,4]oxazepin-3-ylamine] | 6.44
COc1cnc(C#Cc2ccc(F)c([C@@]3(C)N=C(N)COC(C)(C)C3(F)F)c2)cn1 [Example 40, (R)-6,6-Difluoro-5-[2-fluoro-5-(5-methoxy-pyrazin-2-ylethynyl)-phenyl]-5,7,7-trimethyl-2,5,6,7-tetrahydro-[1,4]oxazepin-3-ylamine] | 6.32
CC1(C)OCC(N)=N[C@](C)(c2cc(-c3ncc(Cl)cn3)c(F)cc2F)C1(F)F [Example 32, (R)-5-[5-(5-Chloro-pyrimidin-2-yl)-2,4-difluoro-phenyl]-6,6-difluoro-5,7,7-trimethyl-2,5,6,7-tetrahydro-[1,4]oxazepin-3-ylamine] | 6.30
CC1(C)OCC(N)=N[C@](C)(c2cc(C#Cc3cc(C#N)ccn3)ccc2F)C1(F)F [Example 36, 2-[3-((R)-3-Amino-6,6-difluoro-5,7,7-trimethyl-2,5,6,7-tetrahydro-[1,4]oxazepin-5-yl)-4-fluoro-phenylethynyl]-isonicotinonitrile] | 6.94
CC1(C)OCC(N)=N[C@](C)(c2cc(-c3cnn(-c4ccc(F)cc4)c3)c(F)cc2F)C1(F)F [Example 29, (R)-6,6-Difluoro-5-{2,4-difluoro-5-[1-(4-fluoro-phenyl)-1H-pyrazol-4-yl]-phenyl}-5,7,7-trimethyl-2,5,6,7-tetrahydro-[1,4]oxazepin-3-ylamine] | 6.03
CC1(C)OCC(N)=N[C@](C)(c2cc(-c3nc4ccc(C(F)(F)F)cc4o3)c(F)cc2F)C1(F)F [Example 43, (R)-5-[2,4-Difluoro-5-(6-trifluoromethyl-benzooxazol-2-yl)-phenyl]-6,6-difluoro-5,7,7-trimethyl-2,5,6,7-tetrahydro-[1,4]oxazepin-3-ylamine] | 7.15
CC1(C)OCC(N)=N[C@](C)(c2cc(-c3nc4cc(F)c(F)cc4o3)c(F)cc2F)C1(F)F [Example 42, (R)-5-[5-(5,6-Difluoro-benzooxazol-2-yl)-2,4-difluoro-phenyl]-6,6-difluoro-5,7,7-trimethyl-2,5,6,7-tetrahydro-[1,4]oxazepin-3-ylamine] | 6.26
CC1(C)OCC(N)=N[C@](C)(c2cc(-c3cn(-c4ccccn4)cn3)ccc2F)C1(F)F [Example 22, (R)-6,6-Difluoro-5-[2-fluoro-5-(1-pyridin-2-yl-1H-imidazol-4-yl)-phenyl]-5,7,7-trimethyl-2,5,6,7-tetrahydro-[1,4]oxazepin-3-ylamine] | 6.70
CC1(C)OCC(N)=N[C@](C)(c2cc(-c3nc4ccc(Cl)cc4o3)c(F)cc2F)C1(F)F [Example 31, (R)-5-[5-(6-Chloro-benzooxazol-2-yl)-2,4-difluoro-phenyl]-6,6-difluoro-5,7,7-trimethyl-2,5,6,7-tetrahydro-[1,4]oxazepin-3-ylamine] | 6.74
CC1(C)OCC(N)=N[C@](C)(c2cc(-c3nc4ccc(Cl)cc4s3)ccc2F)C1(F)F [Example 21, (R)-5-[5-(6-Chloro-benzothiazol-2-yl)-2-fluoro-phenyl]-6,6-difluoro-5,7,7-trimethyl-2,5,6,7-tetrahydro-[1,4]oxazepin-3-ylamine hydrochloride] | 5.13
CC1(C)OCC(N)=N[C@](C)(c2cc(-c3nc4cc(Cl)ccc4o3)c(F)cc2F)C1(F)F [Example 41, (R)-5-[5-(5-Chloro-benzooxazol-2-yl)-2,4-difluoro-phenyl]-6,6-difluoro-5,7,7-trimethyl-2,5,6,7-tetrahydro-[1,4]oxazepin-3-ylamine] | 6.26
CC1(C)OCC(N)=N[C@](C)(c2cc(C#Cc3ccnc(Cl)c3)ccc2F)C1(F)F [Example 35, (R)-5-[5-(2-Chloro-pyridin-4-ylethynyl)-2-fluoro-phenyl]-6,6-difluoro-5,7,7-trimethyl-2,5,6,7-tetrahydro-[1,4]oxazepin-3-ylamine] | 7.10
CC(C)(C)COS(=O)(=O)c1cccc(-c2ccc(F)c([C@@]3(C)N=C(N)COC(C)(C)C3(F)F)c2)c1 [Example 12, 3′-((R)-3-Amino-6,6-difluoro-5,7,7-trimethyl-2,5,6,7-tetrahydro-[1,4]oxazepin-5-yl)-4′-fluoro-biphenyl-3-sulfonic acid 2,2-dimethyl-propyl ester] | 5.29
CC1(C)OCC(N)=N[C@](C)(c2cc(C#Cc3ccc(C#N)cn3)ccc2F)C1(F)F [Example 33, 6-[3-((R)-3-Amino-6,6-difluoro-5,7,7-trimethyl-2,5,6,7-tetrahydro-[1,4]oxazepin-5-yl)-4-fluoro-phenylethynyl]-nicotinonitrile] | 8.52
CC1(C)OCC(N)=N[C@](C)(c2cc(C#Cc3ccc(Cl)nn3)ccc2F)C1(F)F [Example 37, (R)-5-[5-(6-Chloro-pyridazin-3-ylethynyl)-2-fluoro-phenyl]-6,6-difluoro-5,7,7-trimethyl-2,5,6,7-tetrahydro-[1,4]oxazepin-3-ylamine] | 6.84
COc1ncc(-c2cc([C@@]3(C)N=C(N)COC(C)(C)C3(F)F)c(F)cc2F)cn1 [Example 30, (R)-5-[2,4-Difluoro-5-(2-methoxy-pyrimidin-5-yl)-phenyl]-6,6-difluoro-5,7,7-trimethyl-2,5,6,7-tetrahydro-[1,4]oxazepin-3-ylamine formate] | 7.12
CC(C)(C)NS(=O)(=O)c1cncc(-c2ccc(F)c([C@@]3(C)N=C(N)COC(C)(C)C3(F)F)c2)c1 [Example 16, 5-[3-((R)-3-Amino-6,6-difluoro-5,7,7-trimethyl-2,5,6,7-tetrahydro-[1,4]oxazepin-5-yl)-4-fluoro-phenyl]-pyridine-3-sulfonic acid tert-butylamide] | 5.81
CC1(C)OCC(N)=N[C@](C)(c2cc(C#Cc3cncc(Cl)c3)ccc2F)C1(F)F [Example 38, (R)-5-[5-(5-Chloro-pyridin-3-ylethynyl)-2-fluoro-phenyl]-6,6-difluoro-5,7,7-trimethyl-2,5,6,7-tetrahydro-[1,4]oxazepin-3-ylamine] | 6.82
CC(C)(C)NS(=O)(=O)c1cccc(-c2ccc(F)c([C@@]3(C)N=C(N)COC(C)(C)C3(F)F)c2)c1 [Example 15, 3′-((R)-3-Amino-6,6-difluoro-5,7,7-trimethyl-2,5,6,7-tetrahydro-[1,4]oxazepin-5-yl)-4′-fluoro-biphenyl-3-sulfonic acid tert-butylamide] | 5.40
CC1(C)OCC(N)=N[C@](C)(c2cc(C#Cc3cccc(Cl)c3)c(F)cc2F)C1(F)F [Example 24, (R)-5-[5-(3-Chloro-phenylethynyl)-2,4-difluoro-phenyl]-6,6-difluoro-5,7,7-trimethyl-2,5,6,7-tetrahydro-[1,4]oxazepin-3-ylamine] | 5.90
CC1(C)OCC(N)=N[C@](C)(c2cc(-c3cc(F)cc(Cl)c3)ccc2F)C1(F)F [Example 11, (R)-5-(5′-Chloro-4,3′-difluoro-biphenyl-3-yl)-6,6-difluoro-5,7,7-trimethyl-2,5,6,7-tetrahydro-[1,4]oxazepin-3-ylamine hydrochloride] | 6.29
CC1(C)OCC(N)=N[C@](C)(c2cc(-c3ccc(C#N)cc3)ccc2F)C1(F)F [Example 20, 3′-((R)-3-Amino-6,6-difluoro-5,7,7-trimethyl-2,5,6,7-tetrahydro-[1,4]oxazepin-5-yl)-4′-fluoro-biphenyl-4-carbonitrile] | 6.15
CC1(C)OCC(N)=N[C@](C)(c2cc(-c3cn(-c4ccc(C(F)(F)F)cn4)cn3)ccc2F)C1(F)F [Example 23, (R)-6,6-Difluoro-5-{2-fluoro-5-[1-(5-trifluoromethyl-pyridin-2-yl)-1H-imidazol-4-yl]-phenyl}-5,7,7-trimethyl-2,5,6,7-tetrahydro-[1,4]oxazepin-3-ylamine] | 6.66
CC1(C)OCC(N)=N[C@](C)(c2cc(C#Cc3ncc(Cl)cn3)ccc2F)C1(F)F [Example 34, (R)-5-[5-(5-Chloro-pyrimidin-2-ylethynyl)-2-fluoro-phenyl]-6,6-difluoro-5,7,7-trimethyl-2,5,6,7-tetrahydro-[1,4]oxazepin-3-ylamine] | 7.89
